Measurements as given in the supplement of paper PMC10307832.

Columns and labels:
Experiment in all cases: relative viability (nuclei count vs DMSO), 5 days (fraction); higher = more cells survive
[1] = compound: C[C@@H](N)c1ccc(C(=O)Nc2ccnc3[nH]ccc23)cc1 + CC1(C)CCC(c2ccc(Cl)cc2)=C(CN2CCN(c3ccc(C(=O)NS(=O)(=O)c4ccc(N[C@H](CCN5CCOCC5)CSc5ccccc5)c(S(=O)(=O)C(F)(F)F)c4)cc3)CC2)C1 [Navitoclax] (partner 0.5 µM)
Procedure, shortened: (§1)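 Lung cancer cell lines were pin-tool dosed in 1536-well plates on the day after seeding, with either a lone drug or a fixed anchor-drug dose plus five library-drug doses (not always all listed) in √10 steps. Nuclei were counted on 4× images after 5 days. Relative viability is the ratio of treated-well to vehicle-well nuclei counts, with each value a median of duplicate plates.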

[2] = compound: C[C@@H](N)c1ccc(C(=O)Nc2ccnc3[nH]ccc23)cc1 + CC(=O)c1c(C)c2cnc(Nc3ccc(N4CCNCC4)cn3)nc2n(C2CCCC2)c1=O [Palbociclib] (partner 0.5 µM)
Procedure, shortened: as §1

[3] = compound: C1CNCCC1C2=CC(=NN2)C3=CC=NC=C3 + Cc1nc(Nc2ncc(C(=O)Nc3c(C)cccc3Cl)s2)cc(N2CCN(CCO)CC2)n1 [Dasatinib] (partner 0.075 µM)
Procedure, shortened: as §1

[4] = compound: C[C@@H](N)c1ccc(C(=O)Nc2ccnc3[nH]ccc23)cc1 + Nc1nc2[nH]cc(CCc3ccc(C(=O)N[C@@H](CCC(=O)O)C(=O)O)cc3)c2c(=O)[nH]1 [Pemetrexed] (partner 0.2 µM)
Procedure, shortened: as §1

| Cell Line | relative viability ([1]; first compound 0.04 µM) | relative viability ([1]; first compound 0.1265 µM) | relative viability ([1]; first compound 0.4 µM) | relative viability ([1]; first compound 1.265 µM) | relative viability ([1]; first compound 4 µM) | relative viability ([2]; first compound 0.04 µM) | relative viability ([2]; first compound 0.1265 µM) | relative viability ([2]; first compound 0.4 µM) | relative viability ([2]; first compound 1.265 µM) | relative viability ([2]; first compound 4 µM) | relative viability ([3]; first compound 0.08 µM) | relative viability ([3]; first compound 0.8 µM) | relative viability ([3]; first compound 2.53 µM) | relative viability ([3]; first compound 8 µM) | relative viability ([4]; first compound 0.04 µM) | relative viability ([4]; first compound 0.1265 µM) | relative viability ([4]; first compound 0.4 µM) | relative viability ([4]; first compound 1.265 µM) | relative viability ([4]; first compound 4 µM) |
| --- | --- | --- | --- | --- | --- | --- | --- | --- | --- | --- | --- | --- | --- | --- | --- | --- | --- | --- | --- |
| NCI-H1666 | 1.05 | 1.21 | 1.09 | 1.19 | 1.17 | 0.661 | 0.63 | 0.636 | 0.616 | 0.668 | 0.718 | 0.941 | 0.821 | 0.783 | 0.872 | 0.815 | 0.847 | 0.956 | 0.974 |
| NCI-H1734 | 0.943 | 0.82 | 0.81 | – | 0.443 | 0.316 | 0.355 | 0.325 | 0.338 | 0.277 | 0.424 | 0.533 | 0.527 | 0.529 | 0.405 | 0.419 | 0.385 | 0.362 | 0.39 |
| NCI-H1755 | 1.04 | 0.985 | 0.962 | 0.933 | 0.622 | 0.432 | 0.436 | 0.437 | 0.407 | 0.367 | 0.483 | – | 0.474 | 0.399 | 0.433 | 0.527 | 0.448 | 0.425 | 0.471 |
| NCI-H1792 | 0.668 | 0.592 | 0.644 | 0.415 | 0.567 | 0.685 | 0.698 | 0.699 | 0.771 | 0.627 | 0.774 | 0.836 | 0.781 | 0.854 | 0.817 | 0.731 | 0.875 | 0.72 | 0.584 |
| NCI-H1793 | 0.415 | 0.421 | 0.409 | – | 0.501 | 0.348 | 0.295 | 0.355 | – | 0.385 | 0.335 | 0.357 | 0.352 | 0.404 | 1.02 | 0.978 | 0.94 | – | 1 |
| NCI-H1915 | 0.755 | 0.792 | 0.817 | – | 0.723 | – | 0.504 | 0.52 | – | 0.431 | 0.286 | 0.311 | 0.316 | 0.308 | – | 0.501 | 0.541 | – | 0.449 |
| NCI-H1944 | 1.05 | 1.01 | 1.06 | – | 0.876 | 0.37 | 0.334 | 0.351 | 0.387 | 0.266 | 0.201 | 0.206 | 0.231 | 0.232 | 0.594 | 0.605 | 0.73 | 0.596 | 0.611 |
| NCI-H1975 | 1.13 | 0.978 | 0.995 | 0.652 | 0.434 | 0.808 | 0.673 | 0.607 | 0.2 | 0.321 | 0.405 | 0.417 | 0.492 | 0.413 | 0.313 | 0.31 | 0.265 | 0.228 | 0.211 |
| NCI-H1993 | 0.904 | 1.01 | – | 0.901 | 0.947 | 0.688 | 0.74 | – | 0.595 | 0.607 | 0.538 | 0.541 | 0.56 | 0.667 | 0.652 | 0.653 | – | 0.632 | 0.642 |
| NCI-H2009 | 1.03 | 1.13 | 1.05 | 1.01 | 0.801 | 0.194 | 0.2 | 0.213 | 0.153 | 0.154 | 0.323 | 0.265 | 0.318 | 0.31 | 0.984 | 0.975 | 0.943 | 0.866 | 0.765 |
| NCI-H2023 | 1.09 | 1.02 | 1.08 | 1.07 | 0.799 | 0.371 | 0.409 | 0.424 | – | 0.35 | 0.48 | 0.661 | 0.583 | 0.567 | 0.226 | 0.262 | 0.211 | – | 0.245 |
| NCI-H2085 | 1.23 | 1.14 | 1.19 | 1.09 | 1 | 0.454 | 0.452 | 0.402 | 0.373 | 0.406 | 0.244 | – | 0.296 | 0.215 | 0.825 | 0.863 | 0.732 | 0.733 | 0.668 |
| NCI-H2087 | 0.911 | 0.917 | 0.903 | 0.903 | 0.855 | 0.24 | 0.263 | 0.299 | 0.254 | 0.28 | 0.662 | 1.02 | 0.75 | 0.84 | 0.654 | 0.651 | 0.65 | 0.571 | 0.577 |
| NCI-H2126 | 0.885 | 0.824 | 0.908 | 0.885 | 0.816 | 0.34 | 0.351 | 0.364 | 0.378 | 0.389 | 0.504 | 0.613 | 0.655 | 0.661 | 0.697 | 0.684 | 0.764 | 0.57 | 0.738 |
| NCI-H2170 | 0.682 | 0.564 | 0.57 | 0.61 | 0.479 | 0.423 | 0.412 | 0.423 | 0.417 | 0.395 | 0.536 | 0.52 | 0.574 | 0.643 | 0.284 | 0.249 | 0.271 | 0.277 | 0.263 |
| NCI-H2228 | 0.897 | 1.08 | 1.03 | 0.985 | 0.963 | 0.808 | 0.806 | 0.909 | 0.352 | 0.839 | 0.594 | 0.572 | 0.531 | 0.484 | 0.342 | 0.385 | 0.302 | 0.347 | 0.327 |
| NCI-H2347 | 0.806 | 0.86 | 0.846 | 0.89 | 0.752 | 0.422 | 0.443 | 0.41 | 0.483 | 0.463 | 0.352 | 0.288 | 0.307 | 0.332 | 0.41 | 0.424 | 0.452 | 0.388 | 0.403 |
| NCI-H2405 | – | 0.799 | 0.513 | 0.41 | 0.279 | – | 0.505 | 0.494 | 0.3 | 0.233 | 0.201 | 0.213 | 0.187 | 0.202 | – | 1.09 | 0.918 | 0.567 | 0.306 |
